Assays:
FAAH = molecular target: T1, FAAH (Mus musculus, UniProt O08914); assay: In vitro competitive activity-based protein profiling (mouse), FAAH gel band; assay type: biochemical; details: for inhibition at 1 µM: read-out: FAAH % inh. 1 μM; for IC50: mouse
T1 construct: Proteomes (mouse brain membrane fraction or cell lysates); from tissue; host or cells: mouse brain membrane fraction (or cell lysates)
T1 sequence (O08914 1-579): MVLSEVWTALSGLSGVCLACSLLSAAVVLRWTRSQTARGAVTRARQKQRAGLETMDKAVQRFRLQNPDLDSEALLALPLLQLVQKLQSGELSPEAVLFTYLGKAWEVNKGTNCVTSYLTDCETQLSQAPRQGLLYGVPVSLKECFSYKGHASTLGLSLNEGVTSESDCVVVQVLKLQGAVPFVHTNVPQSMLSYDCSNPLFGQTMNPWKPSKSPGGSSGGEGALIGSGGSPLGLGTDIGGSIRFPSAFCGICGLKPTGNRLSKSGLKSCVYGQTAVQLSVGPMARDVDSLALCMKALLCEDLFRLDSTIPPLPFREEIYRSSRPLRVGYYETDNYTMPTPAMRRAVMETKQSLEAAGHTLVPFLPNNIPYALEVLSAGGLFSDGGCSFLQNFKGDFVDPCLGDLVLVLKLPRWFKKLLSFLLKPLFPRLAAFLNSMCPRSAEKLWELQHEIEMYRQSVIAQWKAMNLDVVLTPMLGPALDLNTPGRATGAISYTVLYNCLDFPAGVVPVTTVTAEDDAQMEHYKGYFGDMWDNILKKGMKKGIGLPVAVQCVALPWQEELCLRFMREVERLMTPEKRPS
How it was run: (§1)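 Residual enzyme activity is taken from in-gel fluorescence after SDS-PAGE. Proteome from mouse brain membranes or cell lysates (total protein 1.0 mg/mL) sees inhibitor for 30 min, then FP-Rh or HT-01 probe (50 μM DMSO stock) for 30 min, both steps at 37 °C.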

MAGL [1] = molecular target: T2, MAGL (Homo sapiens, UniProt Q99685); assay: In vitro competitive activity-based protein profiling (human), MAGL gel band; assay type: biochemical
T2 construct: Proteomes (human prefrontal cortex or cell membrane fractions); from tissue; host or cells: human prefrontal cortex (or cell membrane fractions)
T2 sequence (Q99685 1-303): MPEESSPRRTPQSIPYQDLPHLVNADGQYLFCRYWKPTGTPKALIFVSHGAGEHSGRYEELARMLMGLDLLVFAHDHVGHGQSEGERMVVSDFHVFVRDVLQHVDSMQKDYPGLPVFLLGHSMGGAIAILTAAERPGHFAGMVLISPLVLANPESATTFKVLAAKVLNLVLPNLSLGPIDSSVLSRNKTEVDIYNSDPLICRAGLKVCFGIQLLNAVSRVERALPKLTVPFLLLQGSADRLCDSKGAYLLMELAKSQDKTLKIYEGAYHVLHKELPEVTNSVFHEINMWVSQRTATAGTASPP
Method: In Vitro Competitive Activity-Based Protein Profiling (Human).
Proteomes (human prefrontal cortex or cell membrane fractions) (50 μL, 1.0-2.0 mg/mL total protein concentration) were preincubated with varying concentrations of inhibitors at 37° C. After 30 min, FP-Rh or JW912 (1.0 μL, 50 μM in DMSO) was added and the mixture was incubated for another 30 min at room temperature. Reactions were quenched with SDS loading buffer (15 μL—4×) and run on SDS-PAGE. Following gel imaging, serine hydrolase activity was determined by measuring fluorescent intensity of gel bands corresponding to MAGL using ImageJ 1.49k software.

MAGL [2] = molecular target: T3, MAGL (Mus musculus, UniProt O35678); assay: In vitro competitive activity-based protein profiling (mouse), MAGL gel band; assay type: biochemical; details: for inhibition at 1 µM: read-out: MAGL % inh. 1 μM; for IC50: mouse
T3 construct: Proteomes (mouse brain membrane fraction or cell lysates); from tissue; host or cells: mouse brain membrane fraction (or cell lysates)
T3 sequence (O35678 1-303): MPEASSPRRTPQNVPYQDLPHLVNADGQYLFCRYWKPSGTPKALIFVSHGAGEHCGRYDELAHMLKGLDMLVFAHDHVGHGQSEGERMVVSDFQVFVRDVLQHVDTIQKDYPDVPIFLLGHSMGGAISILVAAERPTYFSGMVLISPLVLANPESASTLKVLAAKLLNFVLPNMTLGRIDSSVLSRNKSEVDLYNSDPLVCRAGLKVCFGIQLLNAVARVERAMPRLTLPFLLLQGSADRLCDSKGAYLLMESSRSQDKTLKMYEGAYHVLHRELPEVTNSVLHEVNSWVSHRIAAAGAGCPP
How it was run: as §1

MAGL [3] = molecular target: T3, MAGL; assay: Mouse brain proteomes from inhibitor treated mice (oral gavage, sacrificed 4 h after administration); assay type: in vivo; details: read-out: MAGL % inh. 5 mg/kg
How it was run: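 Brains were collected 4 h after oral gavage dosing of wild-type C57Bl/6J mice, vehicle polyethylene glycol. Proteomes from these brains were then analyzed for MAGL and other serine hydrolase activity.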

inhibition at 1 µM (FAAH) [%] | IC50 (MAGL [1]) [nM] | inhibition at 1 µM (MAGL [2]) [%] | IC50 (FAAH) [nM] | inhibition at 5 mg/kg (MAGL [3]) [%] | IC50 (MAGL [2]) [nM] | SMILES
0 to 25 | 100 to 1000 | ≥ 75 |  |  |  | CS(=O)(=O)Nc1ccn(C(=O)N2CCN(Cc3cc(N4CCCC4)ccc3Cl)CC2)n1 [Example 194, N-(1-(4-(2-chloro-5-(pyrrolidin-1-yl)benzyl)piperazine-1-carbonyl)-1H-pyrazol-3-yl) methanesulfonamide]
0 to 25 | ≤ 100 | ≥ 75 |  |  |  | CS(=O)(=O)Nc1ccn(C(=O)N2CCN(Cc3ccc(C(F)(F)F)cc3-c3nccs3)CC2)n1 [Example 211, N-(1-(4-(2-(thiazol-2-yl)-4-(trifluoromethyl)benzyl)piperazine-1-carbonyl)-1H-pyrazol-3-yl) methanesulfonamide]
0 to 25 | ≤ 100 | ≥ 75 |  |  |  | CS(=O)(=O)Nc1ccn(C(=O)N2CCC3(CCCN3Cc3cc(Cl)cc(N4CCCC4)c3)CC2)n1 [Example 193, N-(1-(1-(3-chloro-5-(pyrrolidin-1-yl)benzyl)-1,8-diazaspiro[4.5]decane-8-carbonyl)-1H-pyrazol-3-yl) methanesulfonamide]
0 to 25 | ≤ 100 | ≥ 75 |  |  |  | CS(=O)(=O)Nc1ccn(C(=O)N2CCN(Cc3cc(N4CCC4)cc(C(F)(F)F)c3)CC2)n1 [Example 192, N-(1-(4-(3-(azetidin-1-yl)-5-(trifluoromethyl)benzyl)piperazine-1-carbonyl)-1H-pyrazol-3-yl) methanesulfonamide]
0 to 25 |  | ≥ 75 | 1000 to 10000 | 50 to 75 | ≤ 100 | CS(=O)(=O)Nc1ccn(C(=O)N2CCN(Cc3ccc(C(F)(F)F)cc3N3CC4CCC(C3)O4)CC2)n1 [Example 130, N-(1-(4-(2-(8-oxa-3-azabicyclo[3.2.1]octan-3-yl)-4-(trifluoromethyl)benzyl)piperazine-1-carbonyl)-1H-pyrazol-3-yl) methanesulfonamide]
0 to 25 |  | ≥ 75 | 1000 to 10000 | 0 to 25 | ≤ 100 | CC(=O)Nc1ccn(C(=O)N2CCC3(CCCN3Cc3cc(OCC(=O)N4CCCC4)cc(C(F)(F)F)c3)CC2)n1 [Example 90, N-(1-(1-(3-(2-oxo-2-(pyrrolidin-1-yl)ethoxy)-5-(trifluoromethyl)benzyl)-1,8-diazaspiro[4.5]decane-8-carbonyl)-1H-pyrazol-3-yl)acetamide]
0 to 25 |  | ≥ 75 | 1000 to 10000 | 25 to 50 | ≤ 100 | CC(=O)Nc1ccn(C(=O)N2CCC3(CCCN3Cc3ccc(Cl)cc3N3CCCCC3)CC2)n1 [Example 33, N-(1-(1-(4-chloro-2-(piperidin-1-yl)benzyl)-1,8-diazaspiro[4.5]decane-8-carbonyl)-1H-pyrazol-3-yl)acetamide]
0 to 25 |  | ≥ 75 | 1000 to 10000 | 0 to 25 | ≤ 100 | CC(=O)Nc1ccn(C(=O)N2CCN(Cc3ccc(C(F)(F)F)cc3Oc3cncnc3)CC2)n1 [Example 73, N-(1-(4-(2-(pyrimidin-5-yloxy)-4-(trifluoromethyl)benzyl)piperazine-1-carbonyl)-1H-pyrazol-3-yl)acetamide]
0 to 25 |  | ≥ 75 | 1000 to 10000 | 25 to 50 | ≤ 100 | CC(=O)Nc1ccn(C(=O)N2CCC3(CCCN3Cc3cc(Cl)cc(N4CCCC4)c3)CC2)n1 [Example 63, N-(1-(1-(3-chloro-5-(pyrrolidin-1-yl)benzyl)-1,8-diazaspiro[4.5]decane-8-carbonyl)-1H-pyrazol-3-yl)acetamide]
0 to 25 |  | ≥ 75 | 1000 to 10000 | 25 to 50 | ≤ 100 | Cc1ccc(CN2CCN(C(=O)n3ccc(NS(C)(=O)=O)n3)CC2)c(N2CC3CCC(C2)O3)c1 [Example 146, N-(1-(4-(2-(8-oxa-3-azabicyclo[3.2.1]octan-3-yl)-4-methylbenzyl)piperazine-1-carbonyl)-1H-pyrazol-3-yl) methanesulfonamide]
0 to 25 |  | ≥ 75 | 1000 to 10000 | 25 to 50 | ≤ 100 | CC(=O)Nc1ccn(C(=O)N2CCC3(CCCN3Cc3ccc(C(F)(F)F)c(N4CCOCC4)c3)CC2)n1 [Example 105, N-(1-(1-(3-morpholino-4-(trifluoromethyl)benzyl)-1,8-diazaspiro[4.5]decane-8-carbonyl)-1H-pyrazol-3-yl)acetamide]
0 to 25 |  | ≥ 75 | 1000 to 10000 | 0 to 25 | ≤ 100 | CC(=O)Nc1ccn(C(=O)N2CCC3(CCCN3Cc3cc(OC4CCS(=O)(=O)CC4)cc(C(F)(F)F)c3)CC2)n1 [Example 88, N-(1-(1-(3-((1,1-dioxidotetrahydro-2H-thiopyran-4-yl)oxy)-5-(trifluoromethyl)benzyl)-1,8-diazaspiro[4.5]decane-8-carbonyl)-1H-pyrazol-3-yl)acetamide]
0 to 25 |  | ≥ 75 | 1000 to 10000 | 0 to 25 | ≤ 100 | CC(=O)Nc1ccn(C(=O)N2CCN(Cc3ccc(Cl)cc3N3CCC4(C3)CN(S(C)(=O)=O)C4)CC2)n1 [Example 55, N-(1-(4-(4-chloro-2-(2-(methylsulfonyl)-2,6-diazaspiro[3.4]octan-6-yl)benzyl)piperazine-1-carbonyl)-1H-pyrazol-3-yl)acetamide]
0 to 25 |  | ≥ 75 |  | ≥ 75 |  | [2H]C([2H])([2H])C(=O)Nc1ccn(C(=O)N2CCC3(CCCN3Cc3ccc(Cl)c(C)c3)CC2)n1 [Example 286, N-(1-(1-(4-chloro-3-methylbenzyl)-1,8-diazaspiro[4.5]decane-8-carbonyl)-1H-pyrazol-3-yl)acetamide-2,2,2-d3]
0 to 25 |  | ≥ 75 | 1000 to 10000 | 25 to 50 | ≤ 100 | CC(=O)Nc1ccn(C(=O)N2CCN(Cc3ccc(Cl)cc3N3CCOCC3)CC2)n1 [Example 6, N-(1-(4-(4-chloro-2-morpholinobenzyl)piperazine-1-carbonyl)-1H-pyrazol-3-yl)acetamide]
0 to 25 |  | ≥ 75 | 1000 to 10000 | 0 to 25 | ≤ 100 | CC(=O)Nc1ccn(C(=O)N2CCC3(CCCN3Cc3ccc(C(F)(F)F)cc3N3CC4CCC(C3)O4)CC2)n1 [Example 20, N-(1-(1-(2-(8-oxa-3-azabicyclo[3.2.1]octan-3-yl)-4-(trifluoromethyl)benzyl)-1,8-diazaspiro[4.5]decane-8-carbonyl)-1H-pyrazol-3-yl)acetamide]
0 to 25 |  | ≥ 75 | 1000 to 10000 | 0 to 25 | ≤ 100 | CC(=O)Nc1ccn(C(=O)N2CCN(Cc3cc(OC4CCN(C5CC5)CC4)cc(C(F)(F)F)c3)CC2)n1 [Example 72, N-(1-(4-(3-(1-cyclopropylpiperidin-4-yloxy)-5-(trifluoromethyl)benzyl)piperazine-1-carbonyl)-1H-pyrazol-3-yl)acetamide]
